Like-named read-outs stand apart in the source and are kept apart here.
Tests used:
Assay in all cases: microbe, parasite or virus in culture
Assay type in all cases: cell-based
[1] = system: HCV 2a JFH-1 Rluc cells (dicistronic genotype 2a JFH-1 replicon, RLuc reporter); conditions: Hepatitis C virus, genotype 2a JFH-1 replicon, read-out: 2a JFH
Experimental: (§1) Evaluation of cell-based anti-HCV activity: Antiviral potency (EC50) was determined using a Renilla luciferase (RLuc)-based HCV replicon reporter assay. To perform the assay for genotype 1 and 2a JFH-1, HCV 1b RLuc cells (harboring a dicistronic genotype 1b Con1 replicon that encodes a RLuc reporter), or HCV 1a RLuc cells (harboring a dicistronic genotype 1a H77 replicon that encodes a RLuc reporter), or HCV 2a JFH-1 Rluc cells (harboring a dicistronic genotype 2a JFH-1 replicon that encodes a RLuc reporter) were dispensed into 384-well plates. To perform the assay for genotype 2a (with M31 present) or 2b, HCV 2a Rluc or 2b Rluc cells (both with M31 present) harboring a dicistronic NS5A chimeric genotype 2a JFH-1 replicon that encodes a RLuc reporter and either genotype 2a J6 strain NS5A gene or genotype 2b MD2b-1 NS5A gene (based on Los Alamos HCV database isolates, both with M31 present) respectively, were dispensed into 384-well plates. To perform the assay for genotype 3 and 4, HCV 3a RLuc or 4a Rluc cells harboring a dicistronic NS5A chimeric genotype 1b Con1 replicon that encodes a RLuc reporter and either a consensus genotype 3a NS5A gene or genotype 4a NS5A gene (based on Los Alamos HCV database isolates) respectively, were dispensed into 384-well plates. Compounds were re-suspended in DMSO at a concentration of 10 mM and serially diluted in DMSO either manually or using an automated pipeting instrument. Serially diluted compounds were mixed with cell culture media and added to the seeded cells. […] 72 hours later, cells were lysed and Renilla luciferase activity quantified as recommended by the manufacturer (Promega-Madison, Wis.). Non-linear regression was performed to calculate EC50 values.

[2] = system: HCV 1a RLuc cells (dicistronic genotype 1a H77 replicon, RLuc reporter); conditions: Hepatitis C virus, genotype 1a H77 replicon, read-out: 1a
Experimental: as §1

[3] = system: HCV 3a RLuc cells (NS5A chimeric genotype 1b Con1 replicon with consensus genotype 3a NS5A gene); conditions: Hepatitis C virus
Experimental: as §1

[4] = system: HCV 1b RLuc cells (dicistronic genotype 1b Con1 replicon, RLuc reporter); conditions: Hepatitis C virus, read-out: 1b (nM)
Experimental: as §1

[5] = read-out: 3a, genotype 3a NS5A chimeric 1b Con1 replicon

Compound | EC50 ([1]; RLuc reporter) | EC50 ([2]; RLuc reporter) | EC50 [3, 5] | EC50 [4] | EC50 ([1]; 72 h, Table 2, 72 hours) | EC50 ([2]; 72 h, Table 2, 72 hours) | EC50 ([3]; read-out: 3a, Table 2, genotype 3a NS5A chimeric replicon) | EC50 ([4]; 72 h)
COC(=O)N[C@H](C(=O)N1CCC[C@H]1c1nc2c([nH]1)-c1ccc(-c3ccc4cc(-c5cnc([C@@H]6CCCN6C(=O)[C@H](NC(=O)OC)c6ccccc6)[nH]5)ccc4c3)cc1CC2)C(C)C [Example 210] | 1 to 999 pM | 1 to 999 pM | 1 to 990 pM | 0.008 nM |  |  |  | 
COC(=O)N[C@H](C(=O)N1CCC[C@H]1c1ncc(-c2ccc3cc(-c4ccc(-c5cnc([C@@H]6C[C@@H](F)CN6C(=O)[C@H](NC(=O)OC)c6ccccc6)[nH]5)cc4)ccc3c2)[nH]1)C(C)C [Example 139] | 1000 to 44000 pM | 1 to 999 pM | 1 to 990 pM | 0.004 nM |  |  |  | 
CCN(CC)[C@@H](C(=O)N1CCC[C@H]1c1ncc(-c2ccc(-c3ccc4cc(-c5cnc([C@@H]6CCCN6C(=O)[C@@H](NC(=O)OC)C6CCOCC6)[nH]5)ccc4c3)cc2)[nH]1)c1ccccc1 [Example 171] | 1 to 999 pM | 1 to 999 pM | 1 to 990 pM | 0.026 nM |  |  |  | 
COC(=O)N[C@H](C(=O)N1CCC[C@H]1c1ncc(-c2ccc3cc(-c4ccc(-c5cnc([C@@H]6CCCN6C(=O)C6(NC(=O)OC)Cc7ccccc7C6)[nH]5)cc4)ccc3c2)[nH]1)C(C)C [Example 191] | > 44000 pM | 1000 to 44000 pM | > 5000 pM | 0.253 nM |  |  |  | 
COC(=O)N[C@H](C(=O)N1CCC[C@H]1c1ncc(-c2ccc3cc(-c4ccc(-c5cnc([C@@H]6CCCN6C(=O)[C@H](NC(=O)OC)c6cccc(PC)c6)[nH]5)cc4)ccc3c2)[nH]1)C(C)C (stereo partly shown) [Example 185] | 1 to 999 pM | 1000 to 44000 pM | 1 to 990 pM | 0.008 nM |  |  |  | 
COC(=O)N[C@H](C(=O)N1CCC[C@H]1c1ncc(-c2ccc(-c3ccc4cc(-c5cnc([C@@H]6CCCN6C(=O)[C@@H](NC(=O)OC)C(C)C)[nH]5)ccc4c3)cc2)[nH]1)c1cccnc1 [Example 160] | 1 to 999 pM | 1 to 999 pM | 1 to 990 pM | 0.017 nM |  |  |  | 
COC(=O)N[C@H](C(=O)N1CC2(CC2)C[C@H]1c1ncc(-c2ccc3c(c2)C(F)(F)c2cc(-c4cnc([C@@H]5[C@H]6CC[C@H](C6)N5C(=O)[C@H](NC(=O)OC)c5ccccc5)[nH]4)ccc2-3)[nH]1)C(C)C [Example 37] |  |  |  |  | 1000 to 44000 pM | 1 to 999 pM | 1 to 990 pM | 0.004 nM
CCO[C@H]1C[C@@H](c2ncc(-c3ccc(-c4ccc5cc(-c6cnc([C@@H]7CCCN7C(=O)[C@@H](NC(=O)OC)C(C)C)[nH]6)ccc5c4)cc3)[nH]2)N(C(=O)[C@@H](c2ccccc2)N(C)C)C1 [Example 158] | 1 to 999 pM | 1 to 999 pM | 1 to 990 pM | 0.01 nM |  |  |  | 
COC(=O)N[C@H](C(=O)N1CCC[C@H]1c1ncc(-c2ccc3cc(-c4ccc5c(c4)CCc4nc([C@@H]6CCCN6C(=O)[C@H](NC(=O)OC)c6ccccc6)[nH]c4-5)ccc3c2)[nH]1)C1CCOCC1 [Example 170] | 1 to 999 pM | 1 to 999 pM | 1 to 990 pM | 0.032 nM |  |  |  | 
COC(=O)N[C@H](C(=O)N1C[C@H](C)C[C@H]1c1ncc(-c2ccc3cc(-c4ccc(-c5cnc([C@@H]6CCCN6C(=O)[C@H](NC(=O)OC)c6ccccc6OC)[nH]5)cc4)ccc3c2)[nH]1)C(C)C [Example 147] | 1 to 999 pM | 1 to 999 pM | 1 to 990 pM | 0.012 nM |  |  |  | 
COC(=O)N[C@H](C(=O)N1CCC[C@H]1c1ncc(-c2ccc3cc(-c4ccc(-c5cnc([C@@H]6C[C@H](C)CN6C(=O)[C@H](NC(=O)OC)c6ccccc6)[nH]5)cc4)ccc3c2)[nH]1)C(C)C [Example 130] | 1 to 999 pM | 1 to 999 pM | 1 to 990 pM | 0.006 nM |  |  |  | 
CCN[C@@H](C(=O)N1CCC[C@H]1c1nc(-c2ccc(-c3ccc4cc(-c5c[nH]c([C@@H]6CCCN6C(=O)[C@@H](NC(=O)OC)C(C)C)n5)ccc4c3)cc2)c[nH]1)c1ccccc1 [Example 165] | 1 to 999 pM | 1 to 999 pM | 1 to 990 pM | 0.009 nM |  |  |  | 
COC(=O)N[C@H](C(=O)N1CCC[C@H]1c1ncc(-c2ccc3cc(-c4ccc(-c5cnc([C@@H]6CCCN6C(=O)C(c6ccccc6)N(C)C)[nH]5)cc4)ccc3c2)[nH]1)C(C)C (stereo partly shown) [Example 134] | 1 to 999 pM | 1 to 999 pM | 1 to 990 pM | 0.007 nM |  |  |  | 
COC(=O)N[C@H](C(=O)N1CCC[C@H]1c1ncc(-c2ccc3cc(-c4ccc(-c5cnc([C@]6(F)CCCN6C(=O)[C@H]6c7ccccc7CCN6C)[nH]5)cc4)ccc3c2)[nH]1)C(C)C [Example 152] | > 44000 pM | > 44000 pM | 1000 to 4990 pM | 0.751 nM |  |  |  | 
COC(=O)N[C@H](C(=O)N1CCC[C@H]1c1ncc(-c2ccc(-c3ccc4cc(-c5cnc([C@@H]6CCCN6C(=O)[C@@H](NC(=O)OC)C(C)C)[nH]5)ccc4c3)cc2)[nH]1)c1ccccc1Cl [Example 103] | 1 to 999 pM | 1 to 999 pM | 1 to 990 pM | 0.007 nM |  |  |  | 
COC(=O)N[C@H](C(=O)N1CCC[C@H]1c1ncc(-c2ccc(-c3ccc(-c4ccc(-c5cnc([C@@H]6CCCN6C(=O)[C@H](NC(=O)OC)c6ccccc6)[nH]5)cc4)cc3)cc2)[nH]1)C(C)C [Example 192] | 1 to 999 pM | 1 to 999 pM | 1 to 990 pM | 0.004 nM |  |  |  | 
COC(=O)N[C@H](C(=O)N1CCC[C@H]1c1ncc(-c2ccc(-c3ccc4cc(-c5cnc([C@@H]6CCCN6C(=O)[C@@H](NC(=O)OC)C(C)C)[nH]5)ccc4c3)cc2)[nH]1)c1ccc(OC)cc1 [Example 108] | 1000 to 44000 pM | 1 to 999 pM | > 5000 pM | 0.028 nM |  |  |  | 
COC(=O)N[C@H](C(=O)N1C[C@H](C)C[C@H]1c1ncc(-c2ccc(-c3ccc4cc(-c5cnc([C@@H]6C[C@H](C#N)CN6C(=O)[C@H](NC(=O)OC)c6ccccc6)[nH]5)ccc4c3)cc2)[nH]1)C(C)C [Example 113] | 1 to 999 pM | 1 to 999 pM | 1 to 990 pM | 0.014 nM |  |  |  | 
COC(=O)N[C@H](C(=O)N1CCC[C@H]1c1ncc(-c2ccc(-c3ccc4cc(-c5cnc([C@@H]6CCCN6C(=O)C(c6ccccc6)N6CCCC6)[nH]5)ccc4c3)cc2)[nH]1)C(C)C (stereo partly shown) [Example 125] | 1 to 999 pM | 1 to 999 pM | 1 to 990 pM | 0.032 nM |  |  |  | 
COC(=O)N[C@@H](CC1CCOCC1)C(=O)N1CCC[C@H]1c1ncc(-c2ccc3cc(-c4ccc(-c5cnc([C@@H]6CCCN6C(=O)[C@H](NC(=O)OC)c6ccccc6)[nH]5)cc4)ccc3c2)[nH]1 [Example 213] | 1 to 999 pM | 1 to 999 pM | 1 to 990 pM | 0.03 nM |  |  |  | 
COC(=O)N[C@H](C(=O)N1CCC[C@H]1c1ncc(-c2ccc3cc(-c4ccc(-c5cnc([C@@H]6SCCN6C(=O)[C@H](NC(=O)OC)c6ccccc6)[nH]5)cc4)ccc3c2)[nH]1)C(C)C [Example 117] | 1 to 999 pM | 1 to 999 pM | 1 to 990 pM | 0.007 nM |  |  |  | 
COC(=O)NC(C(=O)N1CCC[C@H]1c1ncc(-c2ccc(-c3ccc4cc(-c5cnc([C@@H]6CCCN6C(=O)[C@@H](NC(=O)OC)C(C)C)[nH]5)ccc4c3)cc2)[nH]1)c1ccc(Cl)cc1 (stereo partly shown) [Example 107] | 1000 to 44000 pM | 1000 to 44000 pM | 1000 to 4990 pM | 0.024 nM |  |  |  | 
COC(=O)N[C@H](C(=O)N1CCC[C@H]1c1ncc(-c2ccc(-c3ccc4cc(-c5cnc([C@@H]6C[C@H](C#N)CN6C(=O)[C@@H](c6ccccc6)N(C)C)[nH]5)ccc4c3)cc2)[nH]1)C(C)C [Example 118] | 1 to 999 pM | 1 to 999 pM | 1 to 990 pM | 0.027 nM |  |  |  | 
COC(=O)N[C@H](C(=O)C1CCSC1c1ncc(-c2ccc(-c3ccc4cc(-c5cnc([C@@H]6CCCN6C(=O)[C@H](NC(=O)OC)c6ccccc6)[nH]5)ccc4c3)cc2)[nH]1)C(C)C (stereo partly shown) [Example 131] | 1 to 999 pM | 1 to 999 pM | 1 to 990 pM | 0.009 nM |  |  |  | 
COC(=O)N[C@H](C(=O)N1C[C@H](C)C[C@H]1c1ncc(-c2ccc3cc(-c4ccc(-c5cnc([C@@H]6CCCN6C(=O)[C@H](NC(=O)OC)c6ccccc6)[nH]5)cc4)ccc3c2)[nH]1)C(C)C [Example 132] | 1 to 999 pM | 1 to 999 pM | 1 to 990 pM | 0.003 nM |  |  |  | 
